Experimental data taken from the SangsterLogP compilation.

experiment: method code SF-GLC, from DOI: 10.1016/s0022-3565(25)29827-5, PMID: 4823294; conditions: pH 7.4

Compared with CC(C)(C)COC(N)=O, CCC(C)(C)COC(N)=O is higher in logD: 0.94 for the first, 1.45 for the second.

First: CCCCOC(N)=O
Second: CCCCCOC(N)=O
The logD of the first is lower: 0.85 for the first, 1.35 for the second.

First: CCCOC(N)=O
Second: CCCCCCOC(N)=O
The logD of the first is lower: 0.36 for the first, 1.85 for the second.

Going from CC(C)(C)OC(N)=O to CCCCCCCOC(N)=O, the logD rises from 0.48 to 2.36.

Going from CCCCCCCCOC(N)=O to NC(=O)OCc1ccccc1, the logD falls from 2.84 to 1.23.
